Laboratory results published in article PMC9182086, “Identification of New Non-BBB Permeable Tryptophan Hydroxylase Inhibitors for Treating Obesity and Fatty Liver Disease” (Molecules, 2022).

Assays:
[1] = Liver microsomal stability (rat); type: in vitro ADME
Experimental: For the liver microsomal activity, test compounds were incubated with rat and mouse’s liver microsomes, respectively, at a final concentration of 1 µM, in the presence of an NADPH regeneration system in 0.1 M potassium phosphate buffer (pH 7.4) for […] at 37 °C in shaking incubator. The microsomal reaction was terminated by adding four volumes of ice-cold acetonitrile and then centrifuged at 4000 rpm for 20 min. The supernatant was collected and analyzed by a LC-MS/MS system. The percentage of the parent compound remaining was calculated by comparing peak areas.

TPH1 = biological target: T1, TPH1 (Homo sapiens, UniProt P17752); experiment: TPH1 enzyme inhibition, in vitro screening (BPS Bioscience kit, fluorescence); type: biochemical
T1 construct: purchased BPS Bioscience
T1 sequence (P17752 1-444): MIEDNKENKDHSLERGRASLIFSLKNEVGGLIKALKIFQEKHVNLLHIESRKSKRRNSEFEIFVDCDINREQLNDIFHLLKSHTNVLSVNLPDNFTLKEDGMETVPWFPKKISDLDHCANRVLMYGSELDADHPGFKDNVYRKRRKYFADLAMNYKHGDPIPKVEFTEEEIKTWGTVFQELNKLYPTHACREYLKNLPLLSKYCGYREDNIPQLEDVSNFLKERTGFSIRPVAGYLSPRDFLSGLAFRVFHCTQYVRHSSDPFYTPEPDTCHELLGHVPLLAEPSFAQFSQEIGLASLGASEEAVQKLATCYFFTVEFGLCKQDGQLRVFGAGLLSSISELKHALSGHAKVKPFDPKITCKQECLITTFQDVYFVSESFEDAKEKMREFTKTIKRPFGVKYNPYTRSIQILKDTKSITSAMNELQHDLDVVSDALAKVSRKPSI
Experimental: Consequently, the core structure of thienopyrimidine tyrosine (derivative 6) was selected as the starting point for the synthesis, evaluating the structure-activity relationships (SAR), and optimization of TPH1 inhibitors. […]
In vitro screening was performed as described previously [PMID: 33417443]. Briefly, TPH1 enzyme activity was measured with a commercially available kit (BPS Bioscience). Compounds were dissolved in DMSO (Sigma). Then, 10 μL of the compound was dispensed into a 96-well microplate, and 40 μL of the TPH1 enzyme solution (320 ng enzyme/reaction) was added. Then, 50 μL of the TPH1 reaction solution was added, and the microplate was sealed with aluminum foil. The microplate was immediately cooled to 4 °C, gently shaken, and incubated for 4 h. After a defined time, 10 μL of the TPH1 quench solution was added. Then, the fluorescence was measured with a Flexstation3 microplate reader at 300 nm for excitation and 360 nm for emission. All experiments were performed in triplicate.

CYP2C19 = biological target: T2, CYP2C19 (Homo sapiens, UniProt P33261); experiment: CYP inhibition assay (P450-Glo) CYP2C19; type: in vitro ADME; conditions: P450-Glo CYP2C19 Screening System (CYP enzyme), read-out: CYP inhibition 2C19
T2 construct: purchased Promega Corp. V9880
T2 sequence (P33261 whole entry): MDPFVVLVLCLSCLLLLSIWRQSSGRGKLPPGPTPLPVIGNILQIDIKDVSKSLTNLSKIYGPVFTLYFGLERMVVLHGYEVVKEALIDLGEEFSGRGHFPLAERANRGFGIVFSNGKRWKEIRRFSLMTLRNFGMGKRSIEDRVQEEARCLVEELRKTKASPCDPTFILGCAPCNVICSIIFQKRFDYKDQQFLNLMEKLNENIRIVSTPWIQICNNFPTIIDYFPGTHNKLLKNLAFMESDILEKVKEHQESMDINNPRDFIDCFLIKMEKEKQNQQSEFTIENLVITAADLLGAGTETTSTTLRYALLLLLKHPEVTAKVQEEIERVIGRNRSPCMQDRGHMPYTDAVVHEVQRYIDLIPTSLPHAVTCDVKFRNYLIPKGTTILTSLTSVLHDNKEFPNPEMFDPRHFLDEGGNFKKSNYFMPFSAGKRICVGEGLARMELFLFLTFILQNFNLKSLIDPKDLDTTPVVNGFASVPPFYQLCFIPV
Text: (§1) Five major screening systems: P450-Glo CYP1A2 Screening System (Catalog# V9770), P450-Glo CYP2C9 Screening System (Catalog# V9790), P450-Glo CYP2C19 (Catalog# V9880), P450-Glo CYP 2D6 (Catalog# V9890), and P450-Glo CYP3A4 (Catalog# V9920) were attained from Promega Corp. (Madison, WI). α-naphthoflavone, sulfaphenazole, amitriptyline, quinidine, and ketoconazole were identified as positive control inhibitors for CYP1A2, CYP2C9, CYP2C19, CYP2D6, and CYP3A4, respectively. The CYP enzyme and substrate were combined in a potassium phosphate (KPO4) buffer and the reaction is initiated by adding an NADPH regenerating system. The volume of the mixture (12.5 μL in a 96-well plate) was combined with an equal volume of test compound solution and positive control inhibitor (12.5 μL added to make the volume 25 μL). The reaction of the NADPH regeneration system was initiated by adding a 2× concentration of NADPH solution. Then an equal volume of luciferin detection reagent was added. The plates were incubated at room temperature for 20 min and the luminescence signal was measured by a microplate reader device.

[2] = Blood brain barrier PK: plasma and brain levels after iv dosing; type: in vivo, male SD rats; conditions: male rats, 5 mg/kg iv; for BBB penetration: brain level: BQL = below the quantification limit
Experimental: The biodistribution study in plasma and brain tissue was performed using eight-week-old male SD rats (Orient Bio Inc., Seongnam, Korea). Dosing vehicles were composed of DMSO, PEG400, and deionized water (5:40:55, v/v/v). 18i compound was administrated at a dose of 5 mg/kg via intravenous (I.V.). […] Brain tissues were rinsed with saline and four volumes of acetronitrile containing disopyramide were added as an internal standard for LC-MS/MS analysis. The brain samples were homogenized using a sonicator (IKA Labortechnik T10 basic ULTRA-TURRAX, Staufen, Germany) for 10 s on the ice. The plasma samples were added to nine volumes of acetonitrile and vortexed for 5 min. The samples were centrifuged (15,000 RPM, 4 °C, 10 min). The supernatant was collected and analyzed by an LC-MS/MS system.
The LC-MS/MS analysis was performed on an Agilent 1200 series (Agilent Technologies, Santa Clara, CA, USA) with an API 4000 linear ion trap triple quadruple mass spectrometer (AB Sciex, CA, USA). The chromatographic separation of the drug was carried out using a kinetex column (100 × 2.1 mm, 3 μm, Phenomenex, CA USA) with a SecurityGuard C18 guard column (4 mm × 2.0 mm i.d., Phenomenex). The flow rate was 300 µL/min with a mobile phase consisting of 0.1% formic acid in water (eluent A) and 0.1% formic acid in acetonitrile (eluent B) by linear gradient condition as follows: starting with 0 to 0.3 min, B: 5%; 0.3 to 2.5 min, B: 5 → 95%; 2.5 to 2.9 min, B: 95%; 2.9 to 3.0 min, B: 95 → 5%, and then re-equilibrated to initial conditions until 3 min. The total run time was 6 min and the injection volume of 5 μL.

CYP3A4 = biological target: T3, CYP3A4 (Homo sapiens, UniProt P08684); experiment: CYP inhibition assay (P450-Glo) CYP3A4; type: in vitro ADME; conditions: P450-Glo CYP3A4 Screening System (CYP enzyme), read-out: CYP inhibition 3A4
T3 construct: purchased Promega Corp. V9920
T3 sequence (P08684 whole entry): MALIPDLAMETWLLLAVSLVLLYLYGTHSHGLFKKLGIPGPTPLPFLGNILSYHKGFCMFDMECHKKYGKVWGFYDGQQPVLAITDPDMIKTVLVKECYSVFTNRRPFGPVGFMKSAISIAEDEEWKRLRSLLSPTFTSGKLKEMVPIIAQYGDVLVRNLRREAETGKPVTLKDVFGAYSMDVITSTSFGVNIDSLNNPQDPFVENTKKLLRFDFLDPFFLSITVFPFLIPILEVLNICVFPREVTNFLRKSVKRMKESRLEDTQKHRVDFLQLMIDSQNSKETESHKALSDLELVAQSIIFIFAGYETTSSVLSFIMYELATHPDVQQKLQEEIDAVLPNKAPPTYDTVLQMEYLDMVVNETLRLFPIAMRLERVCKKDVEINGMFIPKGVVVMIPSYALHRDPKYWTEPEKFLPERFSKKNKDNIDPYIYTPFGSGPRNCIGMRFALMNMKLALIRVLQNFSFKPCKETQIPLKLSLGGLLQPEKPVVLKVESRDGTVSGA
Text: as §1

## Cc1ccn(-c2cc(Cl)ccc2[C@@H](Oc2ncnc3c(-c4ccc(C[C@H](N)C(=O)O)cc4)csc23)C(F)(F)F)n1.Cl [Compound 18i, (S)-2-amino-3-(4-(4-((R)-1-(4-chloro-2-(3-methyl-1H-pyrazol-1-yl)phenyl)-2,2,2-trifluoroethoxy)thieno[3,2-d]pyrimidin-7-yl)phenyl)propanoic acid hydrochloride]
[1]; after 30 min incubation, 1 µM
  Liver microsomal stability (rat), parent remained: 99% parent remained after 30 min incubation
[1]; after incubation for 30 min, species not given
  Liver microsomal stability, remained: 99%
TPH1
  IC50: 37 nM
TPH1; 1 µM compound
  inhibition at 1 µM: 95%
CYP2C19
  inhibition at 10 µM: 46.5%
[2]; SD, rat, plasma, 0.5 h, read-out: BBB penetration: plasma level
  concentration at 0.5 h: 2270 ng/mL
[2]; SD, rat, plasma, 3 h, read-out: BBB penetration: plasma level
  concentration at 3 h: 1440 ng/mL
[2]; 0.5 h
  BBB penetration: plasma level: Plasma: 0.5 h: 2266 ng/mL
  BBB penetration: brain level: Brain: 0.5 h: BQL ^a
[2]; 3 h
  BBB penetration: plasma level: 3 h: 1439 ng/mL
  BBB penetration: brain level: 3 h: BQL
[2]; time not stated
  level below the quantification limit (text says plasma): < 7 ng/mL
CYP3A4
  inhibition at 10 µM: 45.3%
